# In patent US20240067632A1, “WEE1 Degrading Compounds and Uses Thereof” (Bristol-Myers Squibb Company, priority 2022, published 2024):
# Where two headings read alike, the source gives them in different places.
# Columns and labels:
# MKN45 cells = experiment: MKN45 cell proliferation assay (Cell-Titer-Glo, 120 h); type: cell-based; conditions: for EC50: Homo sapiens, MKN-45, 120 h, Cell-Titer-Glo, read-out: MKN45 Cell Prolif. 120 hr (EC50); for MKN45 Cell Prolif. 120 hr (Ymin-Obs): minimal percent of DMSO control observed in the concentrations tested
# Summary of the method: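 Growth inhibition was read as blank-corrected Cell-Titer-Glo luminescence expressed as percent DMSO control after 120 h at 37 C, 400 cells/well. Compounds tested in triplicate as 10-point half-log series from 1 or 10 uM, 0.1% DMSO; four-parameter fit gave EC50, and lowest observed percent control was reported as Ymin-obs.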
# WEE1 = molecular target: T1, WEE1 (Homo sapiens, UniProt P30291+Q96SW2); experiment: WEE1-ePL degradation assay (LentiX-WEE1-ePL-GSPT1-ND cells, InCELL Hunter luminescence, 4 h); type: cell-based; conditions: 293T-LentiX WEE1-ePL cells; for DC50: read-out: 293T-LentiX WEE1-ePL Degradation 4 hr (EC50)
# T1 construct: C-terminal ePL-tagged (DiscoverX, Fremont, CA) full-length WEE1 expression construct; expressed in transfected cells; host or cells: LentiX-HEK293T (Invitrogen), lentiviral transduction; co-expressing GSPT1-GN (G576N, lacking the first 158 amino acids)
# Summary of the method: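 Degradation EC50 was fitted by a four-parameter logistic model, with the upper limit taken from DMSO wells. Luminescence was read with InCELL Hunter reagent after 30 min at room temperature, following a 4 h, 37° C exposure of 2500 cells/well. Cells were LentiX-HEK293T carrying ePL-tagged full-length WEE1, dosed in 10 points (3-fold) from 1 or 10 uM.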
# [1] = lower limit of the fit (Ymin=0 luciferase inhibitor, Ymax DMSO control)
# [2] = lower limit of the fit (0 = luciferase inhibitor, Ymax = DMSO control)
Compound,EC50 (MKN45 cells),293T-LentiX WEE1-ePL Degradation 4 hr (Ymin) (WEE1; [1]),DC50 (WEE1),EC50 (MKN45 cells; growth inhibition),293T-LentiX WEE1-ePL Degradation 4 hr (Ymin) (WEE1; [2]),MKN45 Cell Prolif. 120 hr (Ymin-Obs) (MKN45 cells)
"Cc1ccc2cc(CN3C[C@@H](C)[C@H](Oc4ccc5c(c4)CN(C4CCC(=O)NC4=O)C5=O)C3)ccc2n1 (stereo partly drawn) [3-(5-{[(3S,4R)-4-methyl-1-[(2-methylquinolin-6-yl)methyl]pyrrolidin-3-yl]oxy}-1-oxo-2,3-dihydro-1H-isoindol-2-yl)piperidine-2,6-dione]",–,–,3.1 nM,17.5 nM,33,12.51
"COC[C@@H]1CN(Cc2ccc3nc(C4CCOCC4)ccc3c2)C[C@H]1Oc1ccc2c(c1)CN(C1CCC(=O)NC1=O)C2=O (stereo partly drawn) [3-(5-{[(3S,4S)-4-(methoxymethyl)-1-{[2-(oxan-4-yl)quinolin-6-yl]methyl}pyrrolidin-3-yl]oxy}-1-oxo-2,3-dihydro-1H-isoindol-2-yl)piperidine-2,6-dione]",1.89 nM,29.16,3.08 nM,–,–,9.504
"Cc1ccc2cc(CN3C[C@H](C)[C@H](Oc4ccc5c(c4)CN(C4CCC(=O)NC4=O)C5=O)C3)ccc2n1 (stereo partly drawn) [3-(5-{[(3S,4S)-4-methyl-1-[(2-methylquinolin-6-yl)methyl]pyrrolidin-3-yl]oxy}-1-oxo-2,3-dihydro-1H-isoindol-2-yl)piperidine-2,6-dione]",–,–,–,> 10000 nM,88.5,85.96
"Cc1ccc2cc(CN3C[C@@H](Oc4ccc5c(c4)CN(C4CCC(=O)NC4=O)C5=O)C[C@H]3C)ccc2n1 (stereo partly drawn) [3-(5-{[(3S,5R)-5-methyl-1-[(2-methylquinolin-6-yl)methyl]pyrrolidin-3-yl]oxy}-1-oxo-2,3-dihydro-1H-isoindol-2-yl)piperidine-2,6-dione]",–,–,–,> 10000 nM,88.5,80.29
"Cc1ccc2cc(CN3C[C@@H](Oc4ccc5c(c4)CN(C4CCC(=O)NC4=O)C5=O)C[C@@H]3C)ccc2n1 (stereo partly drawn) [3-(5-{[(3S,5S)-5-methyl-1-[(2-methylquinolin-6-yl)methyl]pyrrolidin-3-yl]oxy}-1-oxo-2,3-dihydro-1H-isoindol-2-yl)piperidine-2,6-dione]",–,–,83.9 nM,> 10000 nM,64.5,82.25
"O=C1CCC(N2Cc3cc(O[C@H]4CCN(Cc5cc6cc(F)ccc6cn5)C4)c(F)cc3C2=O)C(=O)N1 (stereo partly drawn) [3-(6-fluoro-5-{[(3S)-1-[(6-fluoroisoquinolin-3-yl)methyl]pyrrolidin-3-yl]oxy}-1-oxo-2,3-dihydro-1H-isoindol-2-yl)piperidine-2,6-dione]",–,–,14.3 nM,104 nM,36,11.55
"O=C1CCC(N2Cc3cc(O[C@H]4CCN(Cc5cc6ccccc6cn5)C4)c(F)cc3C2=O)C(=O)N1 (stereo partly drawn) [3-(6-fluoro-5-{[(3S)-1-[(isoquinolin-3-yl)methyl]pyrrolidin-3-yl]oxy}-1-oxo-2,3-dihydro-1H-isoindol-2-yl)piperidine-2,6-dione]",–,–,10.6 nM,53.7 nM,34,7.57
"Cc1nc2ccccc2cc1CN1CC[C@H](Oc2ccc3c(c2)C(=O)N(C2CCC(=O)NC2=O)C3)C1 (stereo partly drawn) [3-(6-{[(3S)-1-[(2-methylquinolin-3-yl)methyl]pyrrolidin-3-yl]oxy}-1-oxo-2,3-dihydro-1H-isoindol-2-yl)piperidine-2,6-dione]",–,–,–,–,87.055,79.9
"O=C1CCC(N2Cc3ccc(O[C@H]4CCN(Cc5cc6ccccc6cn5)C4)cc3C2=O)C(=O)N1 (stereo partly drawn) [3-(6-{[(3S)-1-[(isoquinolin-3-yl)methyl]pyrrolidin-3-yl]oxy}-1-oxo-2,3-dihydro-1H-isoindol-2-yl)piperidine-2,6-dione]",–,–,–,0.399 nM,93.8,82.45
"Cc1ccc2cc(CN3CC[C@H](Oc4ccc5c(c4)CN(C4(C)CCC(=O)NC4=O)C5=O)C3)ccc2n1 (stereo partly drawn) [3-methyl-3-(5-{[(3S)-1-[(2-methylquinolin-6-yl)methyl]pyrrolidin-3-yl]oxy}-1-oxo-2,3-dihydro-1H-isoindol-2-yl)piperidine-2,6-dione]",–,–,5070 nM,> 10000 nM,69.05,83.56

# Further lines, with some results ahead:
EC50 (MKN45 cells),293T-LentiX WEE1-ePL Degradation 4 hr (Ymin) (WEE1; [1]),DC50 (WEE1),EC50 (MKN45 cells; growth inhibition),293T-LentiX WEE1-ePL Degradation 4 hr (Ymin) (WEE1; [2]),Compound,MKN45 Cell Prolif. 120 hr (Ymin-Obs) (MKN45 cells)
1.49 nM,27.42,1.13 nM,–,–,"C[C@@H]1CN(Cc2cc(F)c3nc(C4CCOCC4)ccc3c2)C[C@H]1Oc1ccc2c(c1)CN(C1CCC(=O)NC1=O)C2=O (stereo partly drawn) [3-(5-{[(3S,4R)-1-{[8-fluoro-2-(oxan-4-yl)quinolin-6-yl]methyl}-4-methylpyrrolidin-3-yl]oxy}-1-oxo-2,3-dihydro-1H-isoindol-2-yl)piperidine-2,6-dione]",7.781
2.32 nM,33.41,1.41 nM,–,–,"C[C@@H]1CN(Cc2ccc3nc([C@H]4CCOC4)ccc3c2)C[C@H]1Oc1ccc2c(c1)CN(C1CCC(=O)NC1=O)C2=O (stereo partly drawn) [3-(5-{[(3S,4R)-4-methyl-1-({2-[(3R)-oxolan-3-yl]quinolin-6-yl}methyl)pyrrolidin-3-yl]oxy}-1-oxo-2,3-dihydro-1H-isoindol-2-yl)piperidine-2,6-dione]",10.26
3.67 nM,33.96,1.95 nM,–,–,"C[C@@H]1CN(Cc2ccc3nc([C@@H]4CCOC4)ccc3c2)C[C@H]1Oc1ccc2c(c1)CN(C1CCC(=O)NC1=O)C2=O (stereo partly drawn) [3-(5-{[(3S,4R)-4-methyl-1-({2-[(3S)-oxolan-3-yl]quinolin-6-yl}methyl)pyrrolidin-3-yl]oxy}-1-oxo-2,3-dihydro-1H-isoindol-2-yl)piperidine-2,6-dione]",10.01
–,–,2.71 nM,3.52 nM,27.68,"C[C@@H]1CN(Cc2ccc3nc(C4CCOCC4)ccc3c2)C[C@H]1Oc1ccc2c(c1)CN(C1CCC(=O)NC1=O)C2=O (stereo partly drawn) [3-(5-{[(3S,4R)-4-methyl-1-{[2-(oxan-4-yl)quinolin-6-yl]methyl}pyrrolidin-3-yl]oxy}-1-oxo-2,3-dihydro-1H-isoindol-2-yl)piperidine-2,6-dione]",9.683
7.69 nM,30.27,3 nM,–,–,"O=C1CCC(N2Cc3cc(O[C@H]4CCN(Cc5ccc6nc(C7CCOCC7)ccc6c5)C4)c(F)cc3C2=O)C(=O)N1 (stereo partly drawn) [3-(6-fluoro-5-{[(3S)-1-{[2-(oxan-4-yl)quinolin-6-yl]methyl}pyrrolidin-3-yl]oxy}-1-oxo-2,3-dihydro-1H-isoindol-2-yl)piperidine-2,6-dione]",15.44
